Columns and labels:
Assay type in all cases: cell-based
human TLR7 = target: T1, human TLR7 (Homo sapiens, UniProt Q9NYK1); assay: TLR7 inhibition reporter assay (HEK-Blue SEAP reporter, gardiquimod stimulation); details: HEK-Blue cells overexpressing human TLR7, SEAP reporter, gardiquimod 7.5 μM, 22 hour incubation
T1 construct: host or cells: HEK-Blue cells
T1 sequence (Q9NYK1 27-1049): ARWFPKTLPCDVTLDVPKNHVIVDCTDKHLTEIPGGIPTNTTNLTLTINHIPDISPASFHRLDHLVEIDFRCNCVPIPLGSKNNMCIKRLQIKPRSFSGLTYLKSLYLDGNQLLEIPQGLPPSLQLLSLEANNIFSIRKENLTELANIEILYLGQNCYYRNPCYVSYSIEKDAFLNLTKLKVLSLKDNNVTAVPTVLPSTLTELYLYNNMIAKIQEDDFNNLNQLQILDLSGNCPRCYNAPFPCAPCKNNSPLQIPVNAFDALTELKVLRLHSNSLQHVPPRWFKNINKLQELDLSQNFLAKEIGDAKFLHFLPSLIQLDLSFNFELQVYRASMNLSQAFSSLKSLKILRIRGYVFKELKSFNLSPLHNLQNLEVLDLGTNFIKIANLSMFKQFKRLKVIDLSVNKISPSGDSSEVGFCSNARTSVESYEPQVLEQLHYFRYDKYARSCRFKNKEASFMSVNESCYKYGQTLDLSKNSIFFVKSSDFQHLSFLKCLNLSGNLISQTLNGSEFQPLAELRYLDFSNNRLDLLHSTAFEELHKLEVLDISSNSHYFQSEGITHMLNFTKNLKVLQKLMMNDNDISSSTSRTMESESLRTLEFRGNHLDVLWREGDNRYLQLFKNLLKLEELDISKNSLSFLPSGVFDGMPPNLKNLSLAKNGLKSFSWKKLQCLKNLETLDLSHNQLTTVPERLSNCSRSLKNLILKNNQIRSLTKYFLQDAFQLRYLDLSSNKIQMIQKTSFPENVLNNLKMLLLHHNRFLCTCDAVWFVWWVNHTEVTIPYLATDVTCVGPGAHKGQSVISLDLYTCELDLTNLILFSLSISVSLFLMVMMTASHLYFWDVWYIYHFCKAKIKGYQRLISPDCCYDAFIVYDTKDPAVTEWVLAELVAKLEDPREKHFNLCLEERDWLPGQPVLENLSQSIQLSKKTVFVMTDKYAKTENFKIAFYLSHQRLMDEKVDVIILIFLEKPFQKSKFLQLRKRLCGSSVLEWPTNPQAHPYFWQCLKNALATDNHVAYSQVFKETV
How it was run: (§1)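 Human TLR7/8/9 HEK-Blue reporter lines; dose range 0.05 nM–50 μM; 30 min RT preincubation; stimulus gardiquimod 7.5 μM / R848 15.9 μM / ODN2006 5 nM respectively; 22 h, 37 °C; SEAP detected colorimetrically.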

human TLR8 = target: T2, human TLR8 (Homo sapiens, UniProt Q9NR97); assay: TLR8 inhibition reporter assay (HEK-Blue SEAP reporter, R848 stimulation); details: HEK-Blue cells overexpressing human TLR8, SEAP reporter, R848 15.9 μM, 22 hour incubation
T2 construct: host or cells: HEK-Blue cells
T2 sequence (Q9NR97 27-1041): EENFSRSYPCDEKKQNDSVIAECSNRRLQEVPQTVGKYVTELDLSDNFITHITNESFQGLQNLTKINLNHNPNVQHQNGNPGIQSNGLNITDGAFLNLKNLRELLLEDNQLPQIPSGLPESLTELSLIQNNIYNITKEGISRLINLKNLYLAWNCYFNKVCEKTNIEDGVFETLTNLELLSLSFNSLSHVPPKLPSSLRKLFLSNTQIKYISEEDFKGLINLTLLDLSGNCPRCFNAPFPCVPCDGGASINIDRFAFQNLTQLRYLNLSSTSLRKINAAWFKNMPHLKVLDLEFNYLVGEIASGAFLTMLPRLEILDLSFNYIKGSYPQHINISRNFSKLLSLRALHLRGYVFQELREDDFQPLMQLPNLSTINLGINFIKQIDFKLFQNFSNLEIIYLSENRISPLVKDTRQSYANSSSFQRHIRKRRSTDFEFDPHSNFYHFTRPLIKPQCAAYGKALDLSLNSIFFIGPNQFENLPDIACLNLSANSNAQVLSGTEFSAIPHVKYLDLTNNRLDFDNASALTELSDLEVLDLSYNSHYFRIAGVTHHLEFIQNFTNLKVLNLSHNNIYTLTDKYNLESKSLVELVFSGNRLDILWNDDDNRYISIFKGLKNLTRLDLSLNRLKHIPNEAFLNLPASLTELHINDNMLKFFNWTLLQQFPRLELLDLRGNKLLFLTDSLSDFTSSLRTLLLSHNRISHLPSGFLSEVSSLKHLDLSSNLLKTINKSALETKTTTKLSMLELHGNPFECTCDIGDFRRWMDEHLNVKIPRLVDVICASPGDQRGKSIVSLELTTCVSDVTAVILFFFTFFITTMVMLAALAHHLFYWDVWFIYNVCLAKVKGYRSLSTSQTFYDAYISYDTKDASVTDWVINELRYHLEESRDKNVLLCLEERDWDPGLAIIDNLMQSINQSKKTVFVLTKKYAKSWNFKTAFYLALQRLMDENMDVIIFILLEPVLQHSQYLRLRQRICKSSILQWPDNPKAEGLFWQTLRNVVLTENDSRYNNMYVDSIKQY
How it was run: as §1

human TLR9 = target: T3, human TLR9 (Homo sapiens, UniProt Q9NR96); assay: TLR9 inhibition reporter assay (HEK-Blue SEAP reporter, ODN2006 stimulation); details: HEK-Blue cells overexpressing human TLR9, SEAP reporter, ODN2006 5 nM, 22 hour incubation
T3 construct: host or cells: HEK-Blue cells
T3 sequence (Q9NR96 26-1032): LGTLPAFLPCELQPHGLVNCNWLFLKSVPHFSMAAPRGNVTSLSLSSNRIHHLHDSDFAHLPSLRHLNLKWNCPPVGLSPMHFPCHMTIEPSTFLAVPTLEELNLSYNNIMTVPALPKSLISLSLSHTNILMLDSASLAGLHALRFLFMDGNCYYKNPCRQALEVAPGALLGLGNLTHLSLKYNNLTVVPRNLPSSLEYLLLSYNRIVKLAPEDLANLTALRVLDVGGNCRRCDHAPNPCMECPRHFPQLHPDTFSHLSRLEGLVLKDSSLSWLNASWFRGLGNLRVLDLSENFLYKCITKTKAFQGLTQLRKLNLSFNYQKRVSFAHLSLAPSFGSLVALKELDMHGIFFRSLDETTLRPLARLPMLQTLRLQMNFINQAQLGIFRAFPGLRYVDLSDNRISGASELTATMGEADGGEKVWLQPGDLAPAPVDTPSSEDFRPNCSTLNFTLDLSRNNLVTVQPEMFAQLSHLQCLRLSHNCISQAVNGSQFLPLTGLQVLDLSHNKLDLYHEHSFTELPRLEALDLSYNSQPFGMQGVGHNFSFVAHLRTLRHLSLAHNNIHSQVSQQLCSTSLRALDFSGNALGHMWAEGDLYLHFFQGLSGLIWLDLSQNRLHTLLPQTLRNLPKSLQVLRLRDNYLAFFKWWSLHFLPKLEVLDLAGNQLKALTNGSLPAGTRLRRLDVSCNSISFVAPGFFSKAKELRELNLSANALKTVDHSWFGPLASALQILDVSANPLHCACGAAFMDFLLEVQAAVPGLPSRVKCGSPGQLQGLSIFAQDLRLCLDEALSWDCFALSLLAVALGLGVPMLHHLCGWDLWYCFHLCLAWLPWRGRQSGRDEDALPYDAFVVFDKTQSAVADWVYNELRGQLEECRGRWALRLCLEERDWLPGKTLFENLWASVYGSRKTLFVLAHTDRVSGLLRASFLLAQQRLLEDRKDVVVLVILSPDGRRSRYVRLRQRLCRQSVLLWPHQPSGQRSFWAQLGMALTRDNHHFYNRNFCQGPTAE
How it was run: as §1

Structure (SMILES)	IC50 (human TLR7) [nM]	IC50 (human TLR8) [nM]	IC50 (human TLR9) [nM]
Cc1cc(-c2[nH]c3ccc(C4CCN(CC(C)C)CC4)cc3c2C(C)C)cn(CC(C)C)c1=O [Example 112, 1-isobutyl-5-(5-(1-isobutylpiperidin-4-yl)-3-isopropyl-1H-indol-2-yl)-3-methylpyridin-2(1H)-one]	38.9	70.5	2360
CC(C)CN1CCC(c2ccc3[nH]c(-c4cc(-c5ccccc5)c(=O)n(C)c4)c(C(C)C)c3c2)CC1 [Example 89, 5-(5-(1-isobutylpiperidin-4-yl)-3-isopropyl-1H-indol-2-yl)-1-methyl-3-phenylpyridin-2(1H)-one]	16.9	4.5	1960
Cc1cc(-c2[nH]c3ccc(C4CCNCC4)cc3c2C(C)C)cn(CC(F)F)c1=O [Example 40, 1-(2,2-difluoroethyl)-5-(3-isopropyl-5-(piperidin-4-yl)-1H-indol-2-yl)-3-methylpyridin-2(1H)-one]	5.2	16.9	4450
CC(C)c1c(-c2cc(CO)c(=O)n(C)c2)[nH]c2ccc(C3CCNCC3)cc12 [Example 70, 3-(hydroxymethyl)-5-(3-isopropyl-5-(piperidin-4-yl)-1H-indol-2-yl)-1-methylpyridin-2(1H)-one]	8.6	26.1	2450
Cc1c(-c2[nH]c3ccc(C4CCN(C(C)C)CC4)cc3c2C(C)C)cn(C)c(=O)c1C [Example 212, 5-(3-isopropyl-5-(1-isopropylpiperidin-4-yl)-1H-indol-2-yl)-1,3,4-trimethylpyridin-2(1H)-one]	17.1	17.4	12600
COCCN1CCC(c2ccc3[nH]c(-c4cn(C)c(=O)c(Cl)c4C)c(C(C)C)c3c2)CC1 [Example 95, 3-chloro-5-(3-isopropyl-5-(1-(2-methoxyethyl)piperidin-4-yl)-1H-indol-2-yl)-1,4-dimethylpyridin-2(1H)-one]	7	7.8	6090
CC(C)CCN1CCC(c2ccc3[nH]c(-c4cc(-c5ccccc5)c(=O)n(C)c4)c(C(C)C)c3c2)CC1 [Example 90, 5-(5-(1-isopentylpiperidin-4-yl)-3-isopropyl-1H-indol-2-yl)-1-methyl-3-phenylpyridin-2(1H)-one]	21.7	7	1970
Cc1cc(-c2[nH]c3ccc(C4CCN(Cc5cc(OC(F)F)ccc5F)CC4)cc3c2C(C)C)cn(C)c1=O [Example 78, 5-(5-(1-(5-(difluoromethoxy)-2-fluorobenzyl)piperidin-4-yl)-3-isopropyl-1H-indol-2-yl)-1,3-dimethylpyridin-2(1H)-one]	67.6	64	34800
CCCN1CCC(c2ccc3[nH]c(-c4cc(-c5cccnc5)c(=O)n(C)c4)c(C(C)C)c3c2)CC1 [Example 245, 5-(3-isopropyl-5-(1-propylpiperidin-4-yl)-1H-indol-2-yl)-1-methyl-[3,3′-bipyridin]-2(1H)-one]	7.3	2	851

Continued, values first:

IC50 (human TLR7) [nM]	IC50 (human TLR8) [nM]	IC50 (human TLR9) [nM]	Structure (SMILES)
2.1	4.7	4160	Cc1cc(-c2[nH]c3ccc(C4CCN(C5CCC(C(C)(C)O)CC5)CC4)cc3c2C(C)C)cn(C)c1=O (stereo not drawn) [Example 270, 5-(5-(1-(4-(2-hydroxypropan-2-yl)cyclohexyl)piperidin-4-yl)-3-isopropyl-1H-indol-2-yl)-1,3-dimethylpyridin-2(1H)-one]
12.5	16.9	3320	Cc1cc(-c2[nH]c3ccc(C4CCN(C(=O)CN(C)C)CC4)cc3c2C(C)C)nn(C)c1=O [Example 294, 6-(5-(1-(dimethylglycyl)piperidin-4-yl)-3-isopropyl-1H-indol-2-yl)-2,4-dimethylpyridazin-3(2H)-one]
7.1	25.3	10800	CCCN1CCC(c2ccc3[nH]c(-c4cc(COC)c(=O)n(C)c4)c(C(C)C)c3c2)CC1 [Example 348, 5-(3-isopropyl-5-(1-propylpiperidin-4-yl)-1H-indol-2-yl)-3-(methoxymethyl)-1-methylpyridin-2(1H)-one]
7.8	8.6	18200	COCCn1cc(-c2[nH]c3ccc(C4CCN(C(=O)CN(C)C)CC4)cc3c2C(C)C)cc(C)c1=O [Example 287, 5-(5-(1-(dimethylglycyl)piperidin-4-yl)-3-isopropyl-1H-indol-2-yl)-1-(2-methoxyethyl)-3-methylpyridin-2(1H)-one]
1.1	13.5	772	CCCN1CCC(c2ccc3[nH]c(-c4cc(-c5cnc(C6CC6)nc5)c(=O)n(C)c4)c(C(C)C)c3c2)CC1 [Example 338, 3-(2-cyclopropylpyrimidin-5-yl)-5-(3-isopropyl-5-(1-propylpiperidin-4-yl)-1H-indol-2-yl)-1-methylpyridin-2(1H)-one]
